Tests used:
Format in all cases: protein assay
[1] = molecular target: T1, Phosphodiesterase 3 (Homo sapiens, UniProt Q14432+Q13370); assay: Inhibition of PDE3 at 500 uM by Biomol Green quantizyme assay system
[2] = molecular target: T1, Phosphodiesterase 3; assay: Inhibition of PDE3 at 1 nM by Biomol Green quantizyme assay system
[3] = molecular target: T1, Phosphodiesterase 3; assay: Inhibition of PDE3 at 10 uM by Biomol Green quantizyme assay system
[4] = molecular target: T1, Phosphodiesterase 3; assay: Inhibition of PDE3 by Biomol Green quantizyme assay system
[5] = molecular target: T1, Phosphodiesterase 3; assay: Inhibition of PDE3 at 100 nmol by Biomol Green quantizyme assay system

| Structure (SMILES) | inhibition [1] [%] | inhibition [2] [%] | inhibition [3] [%] | IC50 [4] [µM] | inhibition [5] [%] |
| --- | --- | --- | --- | --- | --- |
| CCOC(=O)c1cc(Cc2ccccc2)c(=O)[nH]c1C | 42.9 | – | – | – | – |
| CCOC(=O)c1cc(Cc2ccc(C)cc2)c(=O)[nH]c1C | 80.1 | 0 | 35.4 | 172.5 | – |
| COC(=O)c1cc(Cc2ccccc2)c(=O)[nH]c1C | 76.7 | 21.5 | – | 163.5 | 36.9 |
| Cc1[nH]c(=O)c(Cc2ccc(Cl)cc2Cl)cc1C#N | 79.5 | 0 | 23.1 | 280.7 | – |
| CCOC(=O)c1cc(Cc2ccc(Cl)cc2)c(=O)[nH]c1C | 43 | – | – | – | – |
| CCOC(=O)c1cc(Cc2cccc(Cl)c2)c(=O)[nH]c1-c1ccccc1 | 80.9 | 0 | 20 | 312.4 | – |
| N#Cc1cc(Cc2ccc(Br)cc2)c(=O)[nH]c1-c1ccccc1 | 4.3 | – | – | – | – |
| COC(=O)c1cc(Cc2ccccc2Cl)c(=O)[nH]c1C | 85.8 | – | 87.7 | 2.66 | 36.9 |
| CCOC(=O)c1cc(Cc2ccc(Cl)cc2Cl)c(=O)[nH]c1C | 78.3 | – | 35.4 | 172.13 | 30.8 |
| CCOC(=O)c1cc(Cc2ccc(C)cc2)c(=O)[nH]c1-c1ccccc1 | 42.2 | – | – | – | – |
| CCOC(=O)c1cc(Cc2ccc(Cl)cc2)c(=O)[nH]c1-c1ccccc1 | 1.1 | – | – | – | – |

Now from value to molecule:

| inhibition [1] [%] | inhibition [2] [%] | inhibition [3] [%] | IC50 [4] [µM] | inhibition [5] [%] | Structure (SMILES) |
| --- | --- | --- | --- | --- | --- |
| 79.1 | 44.6 | – | 38.5 | 47.7 | CCOC(=O)c1cc(Cc2ccc(Br)cc2)c(=O)[nH]c1C |
| 41.2 | – | – | – | – | Cc1[nH]c(=O)c(Cc2ccc(Cl)cc2)cc1C#N |
| 84.6 | 35.4 | – | 128.3 | 38.5 | Cc1[nH]c(=O)c(Cc2ccccc2)cc1C#N |
| 74.1 | – | 55.4 | 8.47 | 21.5 | CCOC(=O)c1cc(Cc2ccc(Br)cc2)c(=O)[nH]c1-c1ccccc1 |
| 80.4 | 0 | – | 423.2 | 7.69 | Cc1[nH]c(=O)c(Cc2ccccc2Cl)cc1C#N |
| 22.5 | – | – | – | – | N#Cc1cc(Cc2ccccc2)c(=O)[nH]c1-c1ccccc1 |
| 78.2 | 6.15 | – | 125.1 | 40 | CCCc1cc(C(=O)OCC)c(C)[nH]c1=O |
| 83.2 | – | 56.9 | 7.49 | 30.8 | CCOC(=O)c1cc(Cc2cccc(Cl)c2)c(=O)[nH]c1C |
| 17.3 | – | – | – | – | Cc1[nH]c(=O)c(Cc2ccc(Br)cc2)cc1C#N |
| 83 | 33.9 | 55.4 | 7.3 | – | CCOC(=O)c1cc(Cc2ccccc2)c(=O)[nH]c1-c1ccccc1 |
| 85.9 | 34 | 72.4 | 1.68 | – | Cc1ccc(Cc2cc(C#N)c(C)[nH]c2=O)cc1 |
| 53.9 | – | – | – | – | CCOC(=O)c1cc(Cc2ccccc2Cl)c(=O)[nH]c1C |
| 90.6 | – | 91.7 | – | – | Cc1[nH]c(=O)c(C#N)cc1-c1ccncc1 |

Source: ChEMBL document CHEMBL2069260, “Synthesis and evaluation of novel 2-pyridone derivatives as inhibitors of phosphodiesterase3 (PDE3): a target for heart failure and platelet aggregation” (Bioorg Med Chem Lett, 2012)
